Non-standard residues stand in square brackets, D forms with d. Residues, ends and D or L forms follow the SMILES beside them. Phe(ol) = N[C@H](CO)Cc1ccccc1; Aib = CC(C)(N)C(=O)O
Columns and labels:
[1] = Voltage-clamp current recording of alamethicin pores in a vesicle-derived membrane over a chip aperture; format: biochemical; settings: alamethicin 0.1 μg/mL final concentration in measurement compartment, 85 mM KCl
Procedure: In these experiments, a membrane is formed over an aperture in 85 mM KCl. Next, alamethicin is added to the measurement compartment, to a final concentration of 0.1 μg/mL.^xvii Finally, a potential is applied, and a plot of current versus time is generated.

[2] = test system: nAChR (nicotinic acetylcholine receptor); test: Voltage-clamp current recording of nAChR fused into a membrane on a Si/SiO2 carrier chip; format: biochemical; settings: carbamylcholine 20 μM final concentration
Procedure: In these experiments, a membrane is formed as above. Next, nAChR is introduced into the membrane via Ca^2+-mediated fusion. Specifically, nAChR is purified from an appropriate source, and then reconstituted into small unilamellar vesicles.^xviii Next, these vesicles are added to the measurement compartment, and then fused to the membrane by increasing the Ca^2+ concentration of the sample chamber to greater than about 1 mM. In given cases, the fusion is supported by the subsequent temporary setup of an osmotic gradient.^xix Finally, a potential is applied, and a plot of current versus time is generated. In the absence of agonists, typical receptor opening events are observed (FIG. 15A), whereas, in the presence of agonists, such as carbamylcholine (20 μM final concentration), such receptor opening events are substantially extinguished within a short time (t<100 seconds) (FIG. 15B).

CC(=O)NC(C)(C)C(=O)N1CCC[C@H]1C(=O)NC(C)(C)C(=O)N[C@@H](C)C(=O)NC(C)(C)C(=O)N[C@@H](C)C(=O)N[C@@H](CCC(N)=O)C(=O)NC(C)(C)C(=O)N[C@H](C(=O)NC(C)(C)C(=O)NCC(=O)N[C@@H](CC(C)C)C(=O)NC(C)(C)C(=O)N1CCC[C@H]1C(=O)N[C@H](C(=O)NC(C)(C)C(=O)NC(C)(C)C(=O)N[C@@H](CCC(=O)O)C(=O)N[C@@H](CCC(N)=O)C(=O)N[C@H](CO)Cc1ccccc1)C(C)C)C(C)C [alamethicin] (Ac-[Aib]P[Aib]A[Aib]AQ[Aib]V[Aib]GL[Aib]PV[Aib][Aib]EQ[Phe(ol)])
conductivities of the alamethicin pores [1]: 600 pS

C[N+](C)(C)CCOC(N)=O.[Cl-] [carbamylcholine]
receptor openings after addition of the agonist (desensitization) ([2]; 150 seconds after addition, 400 mM KCl, positive potentials): no receptor openings are observed | time within which receptor opening events are substantially extinguished in the presence of agonist [2]: < 100 s

— patent publication US7387715B2, “Sample positioning and analysis system” (priority 1997, dated 2008)
